In patent publication US20100221769A1, “ELECTROPORATIVE FLOW CYTOMETRY” (priority 2007, published 2010):

Columns and labels:
MCF-7 cells [1] = assay: Cell viability (PI staining) after flow-through electroporation; assay type: cell-based, human; details: 0 and 200 V/cm, 200 ms, 1 hr after electroporation
MCF-7 cells [2] = details: 100 nM for 18 hr (Johnson et al., 1999); cited from earlier work
MCF-7 cells [3] = assay: EFC cell swelling during flow-through electroporation; assay type: cell-based, human
Protocol: Cell culture. MCF-7 and MCF-10A cell lines were obtained from American Type Culture Collection (ATCC, Manassas, Va.) and cultured according to recommended protocols. Briefly, MCF-10A cell line was cultured in DMEM F-12 supplemented with Horse Serum (5.6%), EGF (20 ng/ml), Insulin (10 μg/ml), antibiotics (1%) and Hydrocortisone (0.5 μg/ml). The MCF-7 cell line was cultured in DMEM supplemented with FBS (10%), Penicillin/streptomycin (1%) and L-glutamine (2 mM). The TPA treated MCF-7 cell line was generated by treating MCF-7 cells with 100 nM 12-O-tetradecanoylphorbol-13-acetate (TPA) for 18 hr before experiments. In order to detach cells from culture flasks, cells were treated with 0.1% Trypsin/EDTA, washed and resuspended using the electroporation buffer (10 mM Na2HPO4, […], and 250 mM sucrose). For the treatment of MCF-7 cells with colchicine, MCF-7 cells were incubated in the culture medium consisting of 10 μM colchicine (Sigma, St Louis, USA) for 30 min (Rots and Teissie, 1992, Biochim. Biophys. Acta 1111: 45-50). The cell suspension was then centrifuged and the supernatant was discarded. The cells were washed with the electroporation buffer and then resuspended in the electroporation buffer for testing. […]
Microchip operation and data collection/analysis. The microfluidic chip (shown in FIG. 10) was mounted on an IX-71 fluorescence microscope (Olympus, Melville, N.Y.) equipped with a 40× dry objective (NA=0.40) and an ORCA-285 CCD camera (Hamamatsu, Bridgewater, N.J.). […] However, because the cell size is monitored over time, the results should not be affected by the velocity, assuming mechanical effects such as shear stress can be ignored. […] In this case, the duration of electroporation was determined by the flow rate and the dimensions of the microfluidic channel. […]
For EFC tests, the images of cells were taken at a frame rate of 16 Hz. The cell size was monitored over time during electroporation by measuring the two-dimensional area (μm^2) of individual cells in time-sequenced images using ImageJ software from NIH. […]

SMILES | survival compared with MCF-10A and untreated MCF-7 (MCF-7 cells [1]) | increase in invasiveness and metastatic potential (MCF-7 cells [2]) [fold] | average cell size, % of original size (MCF-7 cells [3]; 400 V/cm, 192 ms, 100 nM for 18 hr, untreated MCF-7 148%) [%] | average percentile cell size from normal distribution fit of histogram (MCF-7 cells [3]; 400 V/cm, 192 ms, about 100 cells, untreated MCF-7 150%) [%] | effect on cell deformability (swelling during electroporation vs control) (MCF-7 cells [3]; 10 μM for 30 min)
CCCCCCCCCCCCCC(=O)O[C@@H]1[C@@H](C)[C@@]2(O)[C@@H](C=C(CO)C[C@]3(O)C(=O)C(C)=C[C@@H]23)[C@@H]2C(C)(C)[C@]12OC(C)=O [TPA, 12-O-tetradecanoylphorbol-13-acetate] | better survival rate | 18 | 170 | 170 | –
COc1cc2c(c(OC)c1OC)-c1ccc(OC)c(=O)cc1[C@@H](NC(C)=O)CC2 [colchicine] | – | – | – | – | cell stiffening
